Results: patent US9624491B2, “Methods and compositions for the detection and treatment of cancer involving miRNAs and miRNA inhibitors and targets” (Memorial Sloan Kettering Cancer Center, priority 2010, dated 2017)

B1: TTTGGCACTGGTAGAACTCCCAATCTTCCTGTCAGAGTGTGAGTTCTACCATTGCCAAATTTTT (nucleic acid)
antisense: TTTGGCACTGGTAGAACTCCCAATCTTCCTGTCAGAGTGTGAGTTCTACCATTGCCAAATTTTT
modifications: listed as DNA, chemistry not fully specified
notes: control antagomir to the randomly chosen miR-182

Experiments:
[1] = test system: FL5-12 lymphocytes; experiment: IL3 depletion competition assay for cytokine-independent survival of FL5-12 lymphocytes; format: cell-based, murine; settings: for IL-3 independence of FL5-12 cells: retest of individual miRNAs from secondary library screen
Experimental: An established in vitro assay of hematopoietic transformation (Plas, Talapatra, Edinger, Rathmell, & Thompson, 2001) was used to identify the key oncogenic activities within the 17˜92 cluster and its paralogues. All miRNAs representing families of unique seed sequences, specifically miR-17, miR-18a, miR-19b-1 (miR-19), miR-20a, miR-106a, miR-106b and miR-25 were tested (FIG. 1a). The assay is based on the IL3 dependence of FL5-12 lymphocytes, which undergo apoptosis when removed from IL3. In competition experiments, FL5-12 cells were partially transduced with GFP plus individual miRNAs or empty vector and these mixed populations were monitored by fluorescence-activated cell sorting (FACS) for changes in their relative proportions (FIG. 1b).
FL5-12 murine lymphocytes, IL3 depletion studies and viral transductions were as described (Mavrakis, et al., 2008) (Plas, Talapatra, Edinger, Rathmell, & Thompson, 2001). Cell cycle and cell death assays based on uptake of DNA staining dye (LDS751) using Cell cycle and Viacount assays from Guava Technologies were performed as reported (Mavrakis, et al., 2008). The retroviral vectors are based on murine stem cell virus (MSCV) and include the miRNA expression vectors encoding miRs 17, 18a, 19b-1 (miR-19), 106a, 106b, 25 (He, et al., 2005), the vectors encoding Notch-ICN (a gift from W. Pear) (Pear, et al., 1996) and Bcl2 (Wendel, et al., 2004), the individual shRNA vectors (FIG. 17) and the library vector (MRP) (FIGS. 18a and b). miRNA inhibitor oligonucleotides (antagomirs) MZIP19a-PA-1, MZIP19b-PA-1, and scrambled control (MZIP000-PA-1) were from System Biosciences.
The primary screen is based on c-MYC-induced apoptosis in MEFs (Evan, et al., 1992). MEFs were transduced with c-MYC and the miRNA library and cultured in puromycin to select for homogeneous c-MYC expression; apoptosis was triggered by diluting serum from 10% to 0.1%. Surviving cells remained adherent and were collected for DNA isolation, PCR amplification of the integrated miRNA library constructs, sub-cloning into pGEM-T vector, bacterial transformation, and sequence identification of ˜100 colonies. A secondary library was constructed by sub-cloning all miRNAs from the primary screen into an MSCV construct. The secondary screen is based on the IL-3 dependence of FL5-12 lymphocytes in vitro (Mavrakis, et al., 2010), (Plas, Talapatra, Edinger, Rathmell, & Thompson, 2001). FL5-12 cells were partially transduced with the pooled, GFP-tagged library and selected by IL-3 depletion. miRNAs were identified as above. Individual miRNAs were subsequently validated in the same FL5-12 assay and in vivo.

[2] = test system: T-ALL1 cells; experiment: Cell number during in vitro culture of T-ALL1 cells expressing antagomirs; format: cell-based, human; settings: T-ALL1, 6 d culture
Experimental: (§1) Given the pleiotropic and partially overlapping pattern of tumor suppressor gene regulation by multiple miRNAs, the effect of miRNA antagomirs on the growth rate and viability of two human T-ALL cell lines, T-ALL1 and Koptk1, were assessed. The human T-ALL1 cell line expresses high levels of miR-19a, miR-19b, miR-26a and miR-92 but only low levels of other miRNAs, e.g. miR-148a and the randomly chosen miR-182 (FIG. 27b inset). […] Results in the Koptk1 cell line were analogous to those in the T-ALL1 cell line (FIG. 28).
(§2) FL5-12 murine pro B-lymphocytes, cell cycle and apoptosis studies and viral transductions were as described (Mavrakis, et al., 2008), (Plas, Talapatra, Edinger, Rathmell, & Thompson, 2001). T-ALL cell lines, including Jurkat, were cultured in RPMI 1640 medium supplemented with 10-20% fetal calf serum, 100 U/ml penicillin G and 100 μg/ml streptomycin at 37° C. in a humidified atmosphere under 5% CO2. All vectors are based on murine stem cell virus (MSCV) and include the miRNA expression vector encoding all miRNAs described (He, et al., 2005), NOTCH1-ICN (Pear, et al., 1996) and the individual shRNA vectors (protein knockdown by shRNAs; FIG. 10). The miRNA pooled library (He, et al., 2005) is a generous gift from G. J. Hannon and has been expanded by PCR cloning to contain ˜300 miRNAs. The antagomirs MZIP19a-PA-1, MZIP19b-PA-1, MZIP26a-PA-1, MZIP92a-PA-1, MZIP148a-PA-1, MZIP182-PA1, MZIP223-PA-1 and scrambled control (MZIP000-PA-1) were from System Biosciences.

[3] = test system: PTEN and BCL2L11; experiment: Quantitative RT-PCR of BCL2L11 and PTEN mRNA in T-ALL1 cells; format: cell-based, human
Excerpt: (§3) Total RNA and miRNA-enriched RNA was extracted using the Allprep DNA/RNA/Protein and miRNeasy Mini kits. Pathological diagnosis was by expert hematopathologists at Weill Cornell Medical Center. cDNA synthesis, PCR and analysis by the ΔΔ Ct method were as described (Mavrakis, et al., 2008) and utilized Taqman Gene Expression Assays: Bcl2l11 (Mm00437796_m1), BCL2L11 (Hs00197982_m1), Pten (Mm01212532_m1), PTEN (Hs02621230_s1), Nf1 (Mm00812430_m1), NF1 (Hs01035104_m1), Ikzf1 (Mm01187878_m1), IKZF1 (Hs00172991_m1), Fbxw7 (Mm00504452_m1), FBXW7 (Hs00217794_m1), Phf6 (Mm00804415_m1), and Mouse GAPD (GAPDH) (4352932, Applied Biosystems). Expression was normalized to RNU6B (001093, Applied Biosystems).

[4] = test system: T-ALL1 cells; experiment: Viability of T-ALL1 cells transduced with antagomirs; format: cell-based, human
Experimental: as §1, §2

[5] = test system: PTEN, BCL2L11, PHF6, IKZF1, NF1, FBXW7; experiment: 3′UTR reporter, quantitative PCR and immunoblot assays of tumor suppressor genes in murine leukemias; format: cell-based; settings: murine T-ALLs expressing NOTCH1 and miRNA, mRNA, protein
Experimental: Immunoblots of whole cell lysates were performed as described (Wendel, et al., 2004). Antibodies were against Bim/Bcl2l11 (AAP-330, 1:1000, Assay Designs), Nf1 (sc67, 1:100, Santa Cruz), Cdc4/Fbxw7 (ab7405, 1:500, Abeam), Ikzf1 (sc-13039, 1:500, Santa Cruz), Phf6 (NB100-79861, 1:1000, Novus Biologicals), Pten (9559, 1:1000, Cell Signaling), tubulin (1:5000; Sigma, B-5-1-2) and actin (1:5000; Sigma, AC-15).
as §3
The mouse FBXW7 (bp 2793-4139; acc. no. NM_001177773), human NF1 (bp 10033-10666; acc. no NM_000267), human PHF6 (bp position 3271-4299; acc. no. NM_001015877) and Bim (bp. 3155-4773; acc. no. NM_009754) 3′UTR fragments were generated by PCR and cloned into the psi-CHECK-2 vector (Promega) with the exception of the IKZF1 3′UTR, which was purchased from Genecopoeia (cat no. HmiT000397b, by 2343-4471 of UTR). The assays were performed as described (Xiao, et al., 2008).

Row | Molecule | enrichment of cells co-expressing miR-19/GFP following IL3 depletion ([1]; treated with 1 μM metformin to activate AMP-kinase) | growth rate [2] | expression of PTEN and BCL2L11 [3] | cell viability [4] | regulation of tumor suppressor genes [5] | IL-3 independence of FL5-12 cells [1]
1 | CN(C)C(=N)N=C(N)N [metformin, reference compound] | Neither the other cDNAs nor metformin treatment abrogated miR-19's protective function |  |  |  |  | 
2 | TATTGCAATTGTCCCGGACTATCTTCCTGTCAGACAGGCCGGGACAAGTGCAATATTTTT (listed as DNA, chemistry not fully specified) [antagomir against miR-92, antagomir to miR92a, miRZIP from System Biosciences] |  | reduce growth rate | de-repress the tumor suppressor genes PTEN and BCL2L11 | significantly decrease cell viability |  | 
3 | TCAGTGCGCTACAGAACGTTATCTTCCTGTCAGACAAAGTTCTGTAGTGCACTGATTTTT (listed as DNA, chemistry not fully specified) [antagomir against miR-148a, antagomir to miR148, miRZIP from System Biosciences] |  | no significant (p>0.05) effect | no significant (p>0.05) effect | no significant (p>0.05) effect |  | 
4 | TTCAAGTGATCCAGGATCGGATCTTCCTGTCAGAGCCTATCCTGGATTACTTGAATTTTT (listed as DNA, chemistry not fully specified) [antagomir against miR-26a, antagomir to miR26a, miRZIP from System Biosciences] |  | reduce growth rate | de-repress the tumor suppressor genes PTEN and BCL2L11 | significantly decrease cell viability |  | 
5 | miR-20a: miRNA, UAAAGUGCUUAUAGUGCAGGUAG (SEQ ID NO: 3) (expressed or natural sequence; listed as Homo sapiens) |  |  |  |  | reduce levels of PTEN and PHF6 protein and mRNA in leukemic cells | 
6 | miR-26: miRNA, UUCAAGUAAUCCAGGAUAGGCU (SEQ ID NO: 5) (expressed or natural sequence; listed as Homo sapiens) |  |  |  |  | reduce levels of PTEN and PHF6 protein and mRNA in leukemic cells | confirmed to confer IL-3 independence on FL5-12 cells
7 | miR-92: miRNA, UAUUGCACUUGUCCCGGCCUGU (SEQ ID NO: 6) (expressed or natural sequence; listed as Homo sapiens) |  |  |  |  | affects IKZF1 and FBWX7 but does not target the murine NF1 | 
8 | miR-223: miRNA, UGUCAGUUUGUCAAAUACCCCA (SEQ ID NO: 10) (expressed or natural sequence; listed as Homo sapiens) |  |  |  |  | strongly regulates FBXW7 reporter activity and protein levels | confirmed to confer IL-3 independence on FL5-12 cells
9 | B1 |  | no significant (p>0.05) effect | no significant (p>0.05) effect | no significant (p>0.05) effect |  | 
